Results on ten substances are retold here after patent US20240317828A1, “T CELL ACTIVATING IMMUNOTHERAPEUTIC FOR TREATMENT OF MUCIN 1 PROTEIN EXPRESSING HUMAN CANCERS” (PDS BIOTECHNOLOGY CORPORATION, priority 2022, published 2024).

Where no end group is shown, it is not given here.

Data set [1] relates to MUC1 antigen-specific T cells. Description: ELISPOT of MUC1 antigen-specific T cells in spleens of vaccinated HLA-A2 transgenic mice. The class given is in vivo, HLA-A2 expressing transgenic mice (AAD mice). The note with it: for antigen delivery to dendritic cells and immune cell activation: FIGS. 4 and 5, anionic SSEEDE N-terminal extension, formulated with R-DOTAP nanoparticles and micellar mixture of six lipidated peptides; for antigen strength (immune response): lipidated peptide in the micellar peptide antigen component of the R-DOTAP vaccine. On the procedure:
As illustrated in FIG. 4 HLA-A2 specific CD8 T cell responses to formulations including peptide antigen SSEEDE-C1A (SEQ ID NO:18) and SSEEDE-C2A (SEQ ID NO:19) formulated with R-DOTAP nanoparticles and a micellar mixture with six lipidated peptide agonist antigens, pC3A: (SEQ ID NO:15), pV1A: (SEQ ID NO:2), pV2A: (SEQ ID NO:3), pC5A: (SEQ ID NO:4), pC6A: (SEQ ID NO:5), pP93L: (SEQ ID NO: 16) were evaluated. […] The efficacy of these vaccine formulations in generating T cell responses was measured by dosing HLA-A2 expressing transgenic mice (AAD mice) with two 0.1 ml injections of the vaccine delivered subcutaneously on day 0 and day 7. Negative control groups mice were vaccinated with MUC1 peptides formulated in sucrose buffer. Immune responses specific to vaccine formulation were measured in an ELISPOT assay by enumerating MUC1 antigen-specific T cells, in triplicate wells, in the spleens obtained from vaccinated mice. Each bar in the graph represents the mean SFU per 250,000 splenocytes for a group of vaccinated mice. Error bars represent mean±SEM for five mice in each group. For identifying MUC1-specific T cells, splenocytes were stimulated with peptide sequences C1A (SEQ ID NO:9: YLAIVYLIAL), C2A (SEQ ID NO:10), V1A (SEQ ID NO:13), V2A (SEQ ID NO:14:) C3A (SEQ ID NO:12) and p93L (SEQ ID NO:11)
As shown in FIG. 5 HLA-A2 specific CD8 T cell responses to formulations including peptide antigen SSEEDE-C1A (SEQ ID NO:9) and SSEEDE-C2A ([…]) formulated with R-DOTAP nanoparticles and a micellar mixture with six lipidated peptide agonist antigens, pC3A: (SEQ ID NO:15), pV1A: (SEQ ID NO:2), pV2A: (SEQ ID NO:3), pC5A: (SEQ ID NO:4), pC6A: (SEQ ID NO:5), pP93L: (SEQ ID NO:16) were assessed. […] The efficacy of these vaccine formulations in generating T cell responses was measured by dosing HLA-A2 expressing transgenic mice (AAD mice) with two 0.1 ml injections of the vaccine delivered subcutaneously on day 0 and day 7. Negative control groups mice were vaccinated with MUC1 peptides formulated in sucrose buffer. Immune responses specific to vaccine formulation were measured in an ELISPOT assay by enumerating MUC1 antigen-specific T cells, in triplicate wells, in the spleens obtained from vaccinated mice. Each bar in the graph represents the mean SFU per 250,000 splenocytes for a group of vaccinated mice. Error bars represent mean±SEM for five mice in each group. For identifying MUC1-specific T cells, splenocytes were stimulated with peptide sequences C1A (SEQ ID NO:9: YLAIVYLIAL), C2A (SEQ ID NO:10), V1A (SEQ ID NO:13), V2A (SEQ ID NO:14) C3A (SEQ ID NO:12) and p93L (SEQ ID NO:11).
Control peptide antigen formulations were prepared with 0.5 ml of Montanide plus CpG, or “NCI adjuvant” formulation consisting of 50 μg/ml GM-CSF, 20 μg/ml IL-12, 0.8 mg/ml HBV core (128-140) peptide in incomplete Freund's adjuvant. The efficacy of these vaccine formulations in generating T cell responses was measured by dosing HLA-A2 expressing transgenic mice (AAD mice) with two 0.1 ml injections of the vaccine delivered subcutaneously on day 0 and day 7. Control group mice were vaccinated with MUC1 peptides formulated in sucrose buffer alone. Immune responses specific to vaccine formulation were measured in an ELISPOT assay by enumerating MUC1 antigen-specific T cells, in triplicate wells, in the spleens obtained from vaccinated mice. Each data point in the graph represents the mean SFU per 250,000 splenocytes in vaccinated mice. Error bars represent mean±SEM for five mice in each group. For identifying MUC1-specific T cells, splenocytes were stimulated with peptide sequences C1A (SEQ ID NO:9: YLAIVYLIAL).
Control peptide antigen formulations were prepared with 0.5 ml of Montanide plus CpG, or “NCI adjuvant” formulation consisting of 50 μg/ml GM-CSF, 20 μg/ml IL-12, 0.8 mg/ml HBV core (128-140) peptide in incomplete Freund's adjuvant. […]

Data set [2] is described as follows: Aqueous solubility of peptide antigens. The note with it: unmodified hydrophobic agonist peptides.
The next data set concerns HLA-A2, A3, A11 and A24. Description: MHC-binding specificity of MUC1 peptide antigens (HLA binding / HLA affinity). The following applies: agonist sequence; HLA allele the peptide binds; listed as VIA. Details: species or system human. The text has this:
Within the human mucin 1 oncoprotein multiple high affinity MHC-binding peptide antigens specific for HLA-A2, A3, A11 and A24 have been identified (Table 1). MHC-binding peptide antigens specific for HLA-A2 have been identified: YLAIVYLIAL (SEQ ID NO:9, C1A), YLIALAVCQV (SEQ ID NO:10, C2A), YLAPPAHGV (SEQ ID NO:13, VIA) and YLDTRPAPV (SEQ ID NO:14, V2A).

Where [3] appears, read: FIG. 8, long peptide mixed with R-DOTAP.

For YLAIVYLIAL [C1A], the “C1A-specific T cell response (immunoactivity)” value in data set [1] (FIG. 1, peptide inserted into lipid bilayer of R-DOTAP nanoparticle, two 0.1 ml s.c. injections day 0 and 7, splenocytes stimulated with C1A) is on record as “effective immunoactivity”. In addition, the immune response entry in data set [1] (FIG. 8, short peptides encapsulated (incorporated into the R-DOTAP bilayer)) was “did generate a significant response”; in data set [1] (FIG. 8, short peptides mixed with R-DOTAP), “did not generate a significant response”. In data set [1] (FIGS. 3 and 7, peptides inserted into R-DOTAP nanoparticle lipid bilayer, with micellar lipidated V1A/V2A, 3 mg R-DOTAP per ml), the “immune response (HLA-A2 specific CD8 T cell)” value is reported as “strong immune responses”. Further, the “generation of immune responses” value in data set [1] (peptide included in antigen mixtures mixed/formulated with R-DOTAP nanoparticles (not inserted in bilayer)) is “ordinarily inactive”.
As to YLIALAVCQV [C2A, YLIALAVCQV], in data set [2], the aqueous solubility entry was “limited aqueous solubility”.
As to “YLAIVYLIALAVCQVRRKNYGQLDIFPARDKYHPMSEYAL [YL40]”, the “antigen specific responses to antigens C1A and C2A” value in data set [1] (FIG. 6, long peptide with lipidated peptide micelles and 3 mg R-DOTAP in 1 ml) is “strong antigen specific responses”. For the same substance, in data set [1] (setting [3]), the “C1A response (activity)” value is recorded as “induces a significant C1A response”. In addition, the “C1A specific T-cell responses” value in data set [1] (FIGS. 6 and 7, long peptide delivered with R-DOTAP nanoparticles) was “high level detection”.
As for “SSEEDE-YLAIVYLIAL (SSEEDEYLAIVYLIAL) [SSEEDE-C1A, C1A with cleavable anionic N-terminal extension SSEEDE]”, the “antigen delivery to dendritic cells and immune cell activation” value in data set [1] is recorded as “effective delivery”.
With “KSS-YLAPPAHGV (not fully specified; lipidated; SITE 1 Epsilon-palmitoyl modified residue) [pV1A, lipidated MUC1 agonist peptide]”, the “antigen strength (immune response)” value in data set [1] (FIGS. 3 and 7) is given as “strong antigens”.
“YLIALAVCQVRRKNYGQLDIFPARDKYHPMSEYAL- [YL35]”: the C2A response result in data set [1] (setting [3]) is reported as “did not generate a significant C2A response”.
With “SSEEDE-YLIALAVCQV (SSEEDEYLIALAVCQV) [SSEEDE-C2A, C2A with cleavable anionic N-terminal extension SSEEDE]”, the “antigen delivery to dendritic cells and immune cell activation” value in data set [1] is “effective delivery”.
Regarding “YLAPPAHGV (not fully specified) [V1A, MUC1 agonist peptide antigen]”, in data set [1] (FIGS. 3 and 7), the “antigen strength (immune response)” value was “strong antigens”. Further, the “HLA Binding” value in the data set with HLA-A2, A3, A11 and A24 is “HLA-A2”.
Turning to “YLDTRPAPV (not fully specified) [V2A, MUC1 agonist peptide antigen]”, in data set [1] (FIGS. 3 and 7), the “antigen strength (immune response)” value is “strong antigens”.
With “KSS-YLDTRPAPV (not fully specified; lipidated; SITE 1 Epsilon-palmitoyl modified residue) [pV2A, lipidated MUC1 agonist peptide]”, in data set [1] (FIGS. 3 and 7), the “antigen strength (immune response)” value was “strong antigens”.
